Results from article PMC7898037, “Improving mitochondria and ER stability helps eliminate upper motor neuron degeneration that occurs due to mSOD1 toxicity and TDP‐43 pathology” (Clinical and Translational Medicine, 2021).

What was measured:
[1] = tested on: UMNs in the motor cortex of prpTDP‐43^A315T‐UeGFP mice; test: UMN quantification in motor cortex, prpTDP‐43^A315T‐UeGFP mice; format: in vivo
Protocol: (§1) hSOD1^G93A‐UeGFP, prpTDP‐43^A315T‐UeGFP and WT‐UeGFP mice were weighed and the required NU‐9 dose per weight was calculated (20 or 100 mg/kg), which was administered once daily by oral gavage, starting at postnatal day (P)60 and continuing until P120. Animals from the untreated group received the vehicle (NMP and olive oil) only. For oral administration purposes, 20 ga × 38 mm plastic feeding tubes were used (Instech Laboratories, Inc). The gavage tip was inserted into the mouth directly over the tongue and into the pharynx. While observing the swallowing reflex, the tip was safely and smoothly slid into the esophagus. Once the administration was completed, the gavage tip was pulled straight out.
(§2) Since UMNs are genetically labeled with eGFP expression in the motor cortex of WT‐UeGFP, hSOD1^G93A‐UeGFP, and prpTDP‐43^A315T‐UeGFP mice, UMNs were identified based on the GFP expression. Quantitative analyses were performed on three matched rostrocaudal sections spanning the motor cortex. Three images per subject were taken to capture a 4× objective filed that encompass layer 5 of the motor cortex. An inverted epifluorescent Eclipse TE2000‐E microscope (Nikon) with the same exposure time and intensity was used. UMNs were counted only if their soma and apical dendrite were both visualized in the same 50‐µm thick section. Images were analyzed in ImageJ (NIH) using the Find maxima processing command to determine the local maxima within a predetermined region of interest that circumscribes the layer 5 of the motor cortex. A universal noise tolerance, which ignores the local maxima corresponding to background and autofluorescence, was applied to all images.

[2] = tested on: SOD1^G93A‐expressing PC12 cell; details: in vitro potency; read-out: EC50 (protein aggregation/toxicity); cited from earlier work
[3] = tested on: UMNs in the motor cortex of hSOD1^G93A‐UeGFP mice; test: UMN quantification in motor cortex, hSOD1^G93A‐UeGFP mice; format: in vivo; details: for Mean, Fig. 5E (UMN quantification in motor cortex): hSOD1G93A-UeGFP mice; for average number of UMNs per section in the motor cortex: hSOD1^G93A‐UeGFP mice
Protocol: as §1, §2

cytochrome P450s = details: cited from earlier work
[4] = tested on: prpTDP‐43^A315T‐UeGFP mice; test: Hanging wire test (max 60 s), prpTDP‐43^A315T‐UeGFP mice; format: in vivo; details: for wire hanging, Predicted (LS) mean: prpTDP-43A315T-UeGFP (NU-9 100 mg/kg/day); for wire hanging, Average: prpTDP-43A315T-UeGFP, NU-9 100 mg/kg/day po
Protocol: as §1
Behavior data were collected from hSOD1^G93A‐UeGFP and WT‐UeGFP mice (starting at P60 and every 7 days until P116) and from prpTDP‐43^A315T‐UeGFP mice (at P60, P90, and P120) with the following number of mice for each group: WT‐UeGFP vehicle (n = 10), hSOD1^G93A‐UeGFP vehicle (n = 6), WT‐UeGFP 20 mg/kg/day NU‐9 (n = 5), hSOD1^G93A‐UeGFP 20 mg/kg/day NU‐9 (n = 7), WT‐UeGFP 100 mg/kg/day NU‐9 (n = 11), hSOD1^G93A‐UeGFP 100 mg/kg/day NU‐9 (n = 9), prpTDP‐43^A315T‐UeGFP untreated (n ≥ 3), and prpTDP‐43^A315T‐UeGFP 100 mg/kg/day NU‐9 (n = 4) (Table S3).
Mice were placed on a wire mesh, which was then inverted and suspended above the home cage; the time when the animal fell was recorded. This test was performed three times for a maximum of 60 s each session, with a 1‐min rest period between each trial. The average performance for each session is presented as the average of the three trials.

cortical neurons = tested on: cortical neurons; design: method as in earlier work; details: ref 53 (compound 2), ref 54 (NU‐9); cited from earlier work
[5] = tested on: UMN apical dendrites of WT‐UeGFP mice; test: UMN apical dendrites with vacuoles, WT‐UeGFP mice; format: in vivo
Protocol: as §1
Mice were deeply anesthetized using ketamine (90 mg/kg) with xylazine (10 mg/kg), and transcardially perfused with 4% PFA in PBS. The brains were removed intact and postfixed (4% PFA, overnight) and stored in PBS with sodium azide (0.01%) at 4°C. Sections were cut in a coronal (50 µm) plane using a vibratome (Leica) and processed for immunocytochemical analyses.
The antibodies used are as follows: anti‐GFP (1:1000, Invitrogen; or 1:1000, Abcam) and anti‐misfolded SOD1 (B8H10, 1:250, Médimabs). Briefly, sections were treated with blocking solution (PBS, 0.05% BSA, 2% FBS, 1% Triton X‐100, and 0.1% saponin) for 30 min at room temperature and incubated with primary antibody diluted in blocking solution overnight at 4°C. Appropriate secondary fluorescent antibodies (1:500, AlexaFluor‐conjugated, Invitrogen) were added to the blocking solution at room temperature for 2 h in the dark.

[6] = WT-UeGFP mice, NU-9 100 mg/kg/day

With `C[C@H](Oc1cc(C(F)(F)F)cc(C(F)(F)F)c1)C1CC(=O)CC(=O)C1` [NU‐9] as the molecule, how does the “Mean Diff., Fig. 7H, GT Untreated vs. GT NU-9 (100)” value ([1]; prpTDP43A315T-UeGFP untreated minus NU-9 100 mg/kg/day, Tukey's multiple comparisons test) read?
The value was -22.58.

And the “Mean, Fig. 7H (UMN quantification in motor cortex)” value ([1]; prpTDP-43A315T-UeGFP mice, NU-9 100 mg/kg/day)?
Its value is 59.17.

What about the “average number of UMNs in the motor cortex” value ([1]; prpTDP‐43^A315T‐UeGFP mice, 100 mg/kg/day oral gavage P60–P120) of the same molecule?
The value was 59 ± 3 UMNs.

What about the EC50 [2] of the same molecule?
Its EC50 is 300 nM.

And the “Mean, Fig. 5E (UMN quantification in motor cortex)” value ([3]; NU-9 20 mg/kg/day)?
The value was 21.06.

And the “Mean, Fig. 5E (UMN quantification in motor cortex)” value ([3]; NU-9 100 mg/kg/day)?
Its value is 46.43.

And the “Mean Diff., Fig. 5E, GS Vehicle vs. GS NU-9 (20)” value ([3]; hSOD1G93A-UeGFP vehicle minus NU-9 20 mg/kg/day, Tukey's multiple comparisons test)?
The value was -16.12.

And the “Mean Diff., Fig. 5E, GS Vehicle vs. GS NU-9 (100)” value ([3]; hSOD1G93A-UeGFP vehicle minus NU-9 100 mg/kg/day, Tukey's multiple comparisons test)?
The value was -41.49.

And the “average number of UMNs per section in the motor cortex” value ([3]; 20 mg/kg/day oral gavage P60–P120)?
The value was 21 ± 5 UMN.

And the “average number of UMNs per section in the motor cortex” value ([3]; 100 mg/kg/day oral gavage P60–P120)?
The value was 46 ± 3 UMN.

And the CYP inhibition (cytochrome P450s; 5 CYPs, at 3 µM)?
Its CYP inhibition is 5 CYPs; <10% at 3 µM.

And the “inhibition of cytochrome P450s” value (cytochrome P450s)?
The value was “little inhibition”.

And the “wire hanging, Predicted (LS) mean” value ([4]; P60, mixed-effects analysis)?
Its value is 56.83.

And the “wire hanging, Predicted (LS) mean” value ([4]; P90, mixed-effects analysis)?
The value was 57.17.

What about the “wire hanging, Predicted (LS) mean” value ([4]; P120, mixed-effects analysis) of the same molecule?
The value was 59.67.

What about the “wire hanging, Average” value ([4]; P60) of the same molecule?
The value was 55.7778.

What about the “wire hanging, Average” value ([4]; P90) of the same molecule?
Its value is 56.2222.

What about the “wire hanging, Average” value ([4]; P120) of the same molecule?
Its value is 59.5556.

What about the “hanging wire test, latency to fall” value ([4]; prpTDP‐43^A315T mice, 100 mg/kg/day, P120) of the same molecule?
Its value is 59.5 ± 0.3 s.

What about the penetration into neurons (cortical neurons) of the same molecule?
The penetration into neurons was “penetrated cortical neurons”.

And the “Mean, Fig. 4G (UMN apical dendrites with vacuoles)” value [5, 6]?
Its value is 16.43.

What about the “Mean, Fig. 7E (UMN apical dendrites with vacuoles)” value [5, 6] of the same molecule?
The value was 16.43.

And the “Mean Diff., Fig. 7E, G vehicle vs. G NU-9 (100)” value ([5]; WT-UeGFP vehicle minus NU-9 100 mg/kg/day, Tukey's multiple comparisons test)?
Its value is 17.11.

And the “Mean Diff., Fig. 4G, G Vehicle vs. G NU-9 (100)” value ([5]; WT-UeGFP vehicle minus WT-UeGFP NU-9 100 mg/kg/day, Tukey's multiple comparisons test)?
The value was 11.77.

And the “percentage of UMN apical dendrites with vacuoles” value ([5]; WT‐UeGFP mice, 100 mg/kg/day oral gavage P60–P120)?
Its value is 16% ± 5%.
